From patent publication US20080167363A1, “Modulation of Neurogenesis By Melatoninergic Agents” (BrainCells, Inc, priority 2006, published 2008)
Several values for one entry are separate records, joined by “and”; a condition that tells them apart may be missing. Equal values may be shown once. One block for each compound: values may come before it.

Experiments:
[1] = system: Human neural stem cells (hNSCs); assay: Neuronal differentiation of human neural stem cells (TUJ-1 staining); format: cell-based; details: for maximum neuronal differentiation percent of positive control: basal media values subtracted
From the text: Human neural stem cells (hNSCs) were isolated and grown in monolayer culture, plated, treated with varying concentrations of the melatonin agonist ramelteon and stained with TUJ-1 antibody, as described in U.S. Provisional Application No. 60/697,905 (incorporated by reference). Mitogen-free test media with a positive control for neuronal differentiation was used along with basal media without growth factors as a negative control. […] Provisional Application No. 60/697,905 (incorporated by reference). Mitogen-free test media with a positive control for neuronal differentiation was used along with basal media without growth factors as a negative control. Human neural stem cells (hNSCs) were isolated and grown in monolayer culture, plated, treated with varying concentrations of captopril and/or melatonin (test compounds), and stained with TUJ-1 antibody, as described in U.S. Provisional Application No. 60/697,905 (incorporated by reference). Mitogen-free test media with a positive control for neuronal differentiation was used along with basal media without growth factors as a negative control. Human neural stem cells (hNSCs) were isolated and grown in monolayer culture, plated, treated with varying concentrations of serotonin (5-HT) and/or melatonin (test compounds), and stained with TUJ-1 antibody, as described in U.S. Provisional Application No. 60/697,905 (incorporated by reference). Mitogen-free test media with a positive control for neuronal differentiation was used along with basal media without growth factors as a negative control. Human neural stem cells (hNSCs) were isolated and grown in monolayer culture, plated, treated with varying concentrations of buspirone in the presence or absence of the melatonin agonist melatonin, and stained with TUJ-1 antibody, as described in U.S. Provisional Application No. 60/697,905 (incorporated by reference). Mitogen-free test media with a positive control for neuronal differentiation was used along with basal media without growth factors as a negative control. Human neural stem cells (hNSCs) were isolated and grown in monolayer culture, plated, treated with varying concentrations of buspirone in the presence or absence of the melatonin agonist ramelteon, and stained with TUJ-1 antibody, as described in U.S. Provisional Application No. 60/697,905 (incorporated by reference). Mitogen-free test media with a positive control for neuronal differentiation was used along with basal media without growth factors as a negative control. Human neural stem cells (hNSCs) were isolated and grown in monolayer culture, plated, treated with varying concentrations of the melatonin […] and stained with TUJ-1 antibody, as described in U.S. Provisional Application No. 60/697,905 (incorporated by reference). Mitogen-free test media with a positive control for neuronal differentiation was used along with basal media without growth factors as a negative control. Human neural stem cells (hNSCs) were isolated and grown in monolayer culture, plated, treated with varying concentrations of the melatonin […] and stained with TUJ-1 antibody, as described in U.S. Provisional Application No. 60/697,905 (incorporated by reference). Mitogen-free test media with a positive control for neuronal differentiation was used along with basal media without growth factors as a negative control. Human neural stem cells (hNSCs) were isolated and grown in monolayer culture, plated, treated with varying concentrations of the melatonin agonist agomelatine and stained with TUJ-1 antibody, as described in U.S. Provisional Application No. 60/697,905 (incorporated by reference). Mitogen-free test media with a positive control for neuronal differentiation was used along with basal media without growth factors as a negative control. The presence of synergy was determined by use of a combination index (CI). […]

[2] = system: Human neural stem cells (hNSCs); assay: Astrocyte differentiation of human neural stem cells (GFAP staining); format: cell-based; details: agent alone; for EC50: Homo sapiens, Neural stem cell, percent of astrocyte positive control, basal media subtracted
From the text: Human neural stem cells (hNSCs) were isolated and grown in monolayer culture, plated, treated with varying concentrations of buspirone in the presence or absence of the melatonin agonist melatonin, and stained with an antibody for the detection of the astrocyte marker GFAP, as described in U.S. Provisional Application No. 60/697,905 (incorporated by reference). Mitogen-free test media with a positive control for astrocyte differentiation was used along with basal media without growth factors as a negative control. Human neural stem cells (hNSCs) were isolated and grown in monolayer culture, plated, treated with varying concentrations of buspirone in the presence or absence of the melatonin agonist ramelteon, and stained with an antibody for the detection of the astrocyte marker GFAP, as described in U.S. Provisional Application No. 60/697,905 (incorporated by reference). Mitogen-free test media with a positive control for astrocyte differentiation was used along with basal media without growth factors as a negative control.

Male F344 rats [3] = assay: Novelty suppressed feeding assay (latency to eat); format: in vivo, rat; details: 0.5 mg/kg buspirone and/or 3.0 mg/kg melatonin, i.p., 1x per day for 21 days
Procedure: Male F344 rats were dosed 1× per day for 21-days with 0 (vehicle only) 0.5 mg/kg buspirone (n=12 per dose group, i.p.) 3.0 mg/kg melatonin (n=12 per dose group, i.p.) or the combination of the two drugs at the same doses. […] Results shown in this figure indicate the mean latency to approach and eat a food pellet within the novel environment. Data are presented as latency to eat expressed as percent baseline.
Male F344 rats were dosed 1× per day for 21-days with 0 (vehicle only), 0.5 mg/kg buspirone (n=12 per dose group, i.p.), 3.0 mg/kg melatonin (n=12 per dose group, i.p.), or the combination of the two drugs at the same doses. Twenty-four hours prior to behavioral testing, all food is removed from the home cage. At the time of testing a single pellet is placed in the center of a novel arena. Animals are placed in the corner of the arena and the latency (in time) to eat the pellet is recorded. […] Animals receive compound daily for 21 days and testing is performed on day 21. A decreased latency to eat the food pellet is indicative of both neurogenesis and antidepressant activity.

Male F344 rats [4] = assay: In vivo neurogenesis (BrdU positive cells in dentate gyrus); set-up: species or system rat; details: 0.5 mg/kg buspirone and/or 3.0 mg/kg melatonin, i.p., 1x per day for 28 days; compared to vehicle
Procedure: (§1) Male F344 rats were dosed 1× per day for 28-days with 0 (vehicle only), 0.5 mg/kg buspirone (n=12 per dose group, i.p.), 3.0 mg/kg melatonin (n=12 per dose group, ip) or the combination of the two drugs at the same doses. BrdU was administered once daily between days 9 and 14 (100 mg/kg/day, i.p., n=12 per dose group). […] Data are presented as percent change in BrdU positive cells per cubic mm dentate gyrus.
as §1, with “For the in vivo neurogenesis assays, male” for “Male”

human mGlu2 receptors = human mGlu2 receptors (Homo sapiens, UniProt Q14416); details: agonist, in vitro; cited from earlier work
Sequence of human mGlu2 receptors (Q14416 19-872): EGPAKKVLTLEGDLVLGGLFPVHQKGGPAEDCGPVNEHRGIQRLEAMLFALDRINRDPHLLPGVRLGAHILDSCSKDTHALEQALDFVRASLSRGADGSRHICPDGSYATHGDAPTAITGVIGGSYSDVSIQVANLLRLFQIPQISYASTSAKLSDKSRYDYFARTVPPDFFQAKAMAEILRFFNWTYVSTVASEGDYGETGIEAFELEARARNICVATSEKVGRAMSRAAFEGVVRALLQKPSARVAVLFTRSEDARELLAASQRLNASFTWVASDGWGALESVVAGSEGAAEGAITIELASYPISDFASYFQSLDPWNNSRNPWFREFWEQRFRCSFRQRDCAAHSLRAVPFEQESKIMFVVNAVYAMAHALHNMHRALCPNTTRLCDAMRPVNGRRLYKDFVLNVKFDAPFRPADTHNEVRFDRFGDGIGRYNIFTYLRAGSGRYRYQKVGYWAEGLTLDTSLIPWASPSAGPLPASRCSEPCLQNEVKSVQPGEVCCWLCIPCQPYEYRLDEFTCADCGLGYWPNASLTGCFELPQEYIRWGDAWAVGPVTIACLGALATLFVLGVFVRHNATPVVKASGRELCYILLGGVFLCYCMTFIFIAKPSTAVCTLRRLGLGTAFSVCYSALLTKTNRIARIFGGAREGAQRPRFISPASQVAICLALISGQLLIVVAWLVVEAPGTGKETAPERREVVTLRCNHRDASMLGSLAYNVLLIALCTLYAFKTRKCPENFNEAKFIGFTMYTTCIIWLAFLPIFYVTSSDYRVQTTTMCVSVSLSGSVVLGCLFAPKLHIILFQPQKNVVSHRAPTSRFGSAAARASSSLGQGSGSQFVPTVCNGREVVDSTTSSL

human mGlu3 receptors = human mGlu3 receptors (Homo sapiens, UniProt Q14832); details: agonist, in vitro; cited from earlier work
Sequence of human mGlu3 receptors (Q14832 23-879): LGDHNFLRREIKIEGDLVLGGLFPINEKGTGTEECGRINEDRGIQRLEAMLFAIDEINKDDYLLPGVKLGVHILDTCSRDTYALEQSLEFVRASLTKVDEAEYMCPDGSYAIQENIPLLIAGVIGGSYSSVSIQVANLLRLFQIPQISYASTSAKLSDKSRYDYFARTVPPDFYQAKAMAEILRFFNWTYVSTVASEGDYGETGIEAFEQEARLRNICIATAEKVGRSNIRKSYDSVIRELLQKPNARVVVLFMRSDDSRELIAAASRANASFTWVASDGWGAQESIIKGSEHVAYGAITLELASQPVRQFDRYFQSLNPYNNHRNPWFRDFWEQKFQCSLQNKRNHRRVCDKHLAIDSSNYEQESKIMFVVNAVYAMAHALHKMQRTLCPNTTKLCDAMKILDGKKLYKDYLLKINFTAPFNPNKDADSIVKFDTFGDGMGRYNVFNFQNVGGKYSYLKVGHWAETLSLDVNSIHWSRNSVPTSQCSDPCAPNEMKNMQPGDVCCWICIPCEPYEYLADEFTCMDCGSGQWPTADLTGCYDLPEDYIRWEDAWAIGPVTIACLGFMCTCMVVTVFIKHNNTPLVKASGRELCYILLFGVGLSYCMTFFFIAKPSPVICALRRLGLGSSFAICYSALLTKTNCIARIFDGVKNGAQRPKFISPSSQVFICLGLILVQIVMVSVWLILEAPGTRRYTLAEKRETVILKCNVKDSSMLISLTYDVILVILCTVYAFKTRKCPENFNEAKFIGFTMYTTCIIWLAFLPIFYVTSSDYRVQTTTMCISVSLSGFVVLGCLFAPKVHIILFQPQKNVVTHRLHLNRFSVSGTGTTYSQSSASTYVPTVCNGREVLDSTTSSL

mGluR2 = mGluR2 (Homo sapiens, UniProt Q14416); details: antagonist; cited from earlier work
Sequence of mGluR2 (Q14416 19-872): as the sequence (Q14416 19-872) above

mGluR3 = mGluR3 (Homo sapiens, UniProt Q14832); details: antagonist; cited from earlier work
Sequence of mGluR3 (Q14832 23-879): as the sequence (Q14832 23-879) above

[5] = system: Group I or Group III receptors; details: at sub-mM concentrations; cited from earlier work
[6] = system: KA, AMPA, and NMDA iGlu receptors; details: cited from earlier work
[7] = Homo sapiens, Neural stem cell, agent alone, concentration response curve, percent of neuronal positive control, basal media subtracted, read-out: EC50, neuronal differentiation

SMILES: COc1ccc2[nH]cc(CCNC(C)=O)c2c1 [melatonin]
EC50 [1, 7]: > 31.6 µM
EC50 ([1]; Homo sapiens, Neural stem cell, agent alone, extrapolated beyond highest tested concentration 31.6 μM, read-out: EC50, neuronal differentiation, estimated by extrapolation): ~49.7 µM
EC50 [2]: > 31.6 µM
effect on astrogenesis [2]: no astrogenesis
effect on astrogenesis ([2]; listed as Melatonin): no effect
latency to eat the food pellet (percent baseline) (Male F344 rats [3]): did not significantly reduce
BrdU positive cells per cubic mm dentate gyrus (percent change) (Male F344 rats [4]): did not significantly change

SMILES: COC(=O)Nc1ccc2[nH]cc(CCNC(C)=O)c2c1 [GR 135,531, 5-Methoxy-carbonylamino-N-acetyl-tryptamine]
EC50 ([1]; Homo sapiens, Neural stem cell, read-out: EC50, neuronal differentiation): 0.24 µM
maximum neuronal differentiation percent of positive control ([1]; agent alone): 59%

SMILES: N[C@@]1(C(=O)O)CO[C@H]2[C@H](C(=O)O)[C@H]21 [LY379268, (−)-2-Oxa-4-aminobicyclohexane-4,6-dicarboxylic acid]
EC50 (human mGlu2 receptors): < 0.01 µM
EC50 (human mGlu3 receptors): < 0.01 µM

SMILES: NC1(C(=O)O)CCc2cc(P(=O)(O)O)ccc21 (racemic) [APICA, (RS)-1-amino-5-phosphonoindan-1-carboxylic acid]
IC50 (mGluR2): ~30 µM
IC50 (mGluR3): ~30 µM
activity against Group I or Group III receptors [5]: no appreciable activity

SMILES: CCC(=O)NC1Cc2ccccc2C(c2ccccc2)C1 (centres unmarked) [4-P-PDOT]
maximum neuronal differentiation percent of positive control ([1]; agent alone): 51%
EC50 ([1]; agent alone, extrapolated beyond highest tested concentration 31.6 μM, read-out: EC50, neuronal differentiation, estimated by extrapolation): 33.7 µM

SMILES: N[C@](CC1c2ccccc2Oc2ccccc21)(C(=O)O)[C@H]1C[C@@H]1C(=O)O [LY341495, (2S)-2-amino-2-(1S,2S-2-carboxycycloprop-1-yl)-3-(xanth-9-yl) propanoic acid]
activity against KA, AMPA, and NMDA iGlu receptors [6]: substantially inactive

SMILES: CC(=O)NCCc1c(Cc2ccccc2)[nH]c2ccccc12 [Luzindole]
EC50 [1, 7]: 9.8 µM
maximum neuronal differentiation percent of positive control ([1]; agent alone): 86%

SMILES: NCCc1c[nH]c2ccc(O)cc12 [serotonin, 5-hydroxytryptamine]
EC50 [1, 7]: 7.4 µM

The next lines start with results.

EC50 [1, 7]: 8.7 µM
SMILES: COc1ccc2cccc(CCNC(C)=O)c2c1 [Agomelatine]
maximum neuronal differentiation percent of positive control ([1]; agent alone): 42%

EC50 [1, 7]: 4.7 µM
EC50 [2]: 5.7 µM
SMILES: O=C1CC2(CCCC2)CC(=O)N1CCCCN1CCN(c2ncccn2)CC1 [buspirone]
maximum neuronal differentiation percent of positive control ([1]; agent alone): 62%
maximum astrocyte differentiation relative to positive control [2]: 60% and 59%
latency to eat the food pellet (percent baseline) (Male F344 rats [3]): did not significantly reduce
BrdU positive cells per cubic mm dentate gyrus (percent change) (Male F344 rats [4]): did not significantly change

EC50 [1, 7]: 8.1 µM
SMILES: CCC(=O)NCC[C@@H]1CCc2ccc3c(c21)CCO3 [Ramelteon]
maximum neuronal differentiation percent of positive control ([1]; agent alone): 45%
effect on astrogenesis [2]: no astrogenesis

EC50 [1, 7]: 3.8 µM
SMILES: C[C@H](CS)C(=O)N1CCC[C@H]1C(=O)O [captopril]
